Source: article PMC5031696, “Synthesis, Biodistribution and In vitro Evaluation of Brain Permeable High Affinity Type 2 Cannabinoid Receptor Agonists [^11C]MA2 and [^18F]MA3” (Frontiers in Neuroscience, 2016)

Columns and labels:
mCB2 [1] = target: T1, mCB2 (Mus musculus, UniProt P47936); assay: functional cAMP assay, mCB2; format: cell-based; settings: CHO-K1 cells expressing mCB2
T1 construct: host or cells: CHO-K1 beta-arrestin cells
Method: (§1) CHO-K1 beta-arrestin cells (DiscoveRx, Fremont, CA) expressing hCB2, mouse CB2 (mCB2), and human CB1 (hCB1) were cultured in F-12 Nutrient Mixture (HAM) supplemented with 10% fetal bovine serum (FBS), 300 μg/mL hygromycin and 800 μg/mL geneticin (G418). Cells were incubated in a humidified atmosphere at 37°C with 5% CO2.
(§2) cAMP was measured using cAMP-Nano-TRF detection kit (Roche Diagnostics, Penzberg, Germany). Cells were seeded 17–24 h prior to the experiment 3 × 10^4 cells per well in a black 96-well plate with flat clear bottom (Corning, Wiesbaden, Germany) in growth medium and incubated in 5% CO2 at 37°C in a humidified incubator. The growth medium was exchanged with Krebs Ringer bicarbonate buffer with 1 mmol/L 3-isobutyl-1-methylxanthine (IBMX), 0.1% fatty acid-free bovine serum albumin (BSA) and incubated at 30°C for 60 min. Agonist was added to a final assay volume of 100 μL and the mixture was incubated for 30 min at 30°C. The assay was stopped by the addition of 50 μL 3x lysis reagent and shaken for 2 h at room temperature. The time-resolved energy transfer was measured using an LF502 Nanoscan FLT (IOM, Berlin, Germany), equipped with a laser as excitation source. cAMP content was determined from the function of a standard curve spanning from 10 to 0.13 nmol/L cAMP.

hCB1 [2] = target: T2, hCB1 (Homo sapiens, UniProt P21554); assay: functional cAMP assay, hCB1 versus hCB2; format: cell-based; settings: cAMP assays
T2 construct: host or cells: CHO-K1 beta-arrestin cells
T2 sequence (P21554 whole entry): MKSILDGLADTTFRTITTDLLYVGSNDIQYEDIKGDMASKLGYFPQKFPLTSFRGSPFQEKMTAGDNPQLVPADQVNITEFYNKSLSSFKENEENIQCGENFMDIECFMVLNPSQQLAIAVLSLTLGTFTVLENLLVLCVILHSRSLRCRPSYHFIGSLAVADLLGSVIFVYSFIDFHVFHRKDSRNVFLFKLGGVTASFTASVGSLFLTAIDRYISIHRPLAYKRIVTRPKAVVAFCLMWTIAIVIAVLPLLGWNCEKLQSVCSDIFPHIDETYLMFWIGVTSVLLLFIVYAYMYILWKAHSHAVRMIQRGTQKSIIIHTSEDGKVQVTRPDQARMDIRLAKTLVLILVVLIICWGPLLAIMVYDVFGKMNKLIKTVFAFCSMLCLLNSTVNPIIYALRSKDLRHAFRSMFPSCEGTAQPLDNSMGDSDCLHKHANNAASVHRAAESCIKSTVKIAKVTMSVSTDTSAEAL
Method: as §1, §2

hCB2 [3] = target: T3, hCB2 (Homo sapiens, UniProt P34972); assay: radioligand binding assay with [^3H]CP55940, hCB2
T3 construct: host or cells: CHO-K1 beta-arrestin cells
T3 sequence (P34972 whole entry): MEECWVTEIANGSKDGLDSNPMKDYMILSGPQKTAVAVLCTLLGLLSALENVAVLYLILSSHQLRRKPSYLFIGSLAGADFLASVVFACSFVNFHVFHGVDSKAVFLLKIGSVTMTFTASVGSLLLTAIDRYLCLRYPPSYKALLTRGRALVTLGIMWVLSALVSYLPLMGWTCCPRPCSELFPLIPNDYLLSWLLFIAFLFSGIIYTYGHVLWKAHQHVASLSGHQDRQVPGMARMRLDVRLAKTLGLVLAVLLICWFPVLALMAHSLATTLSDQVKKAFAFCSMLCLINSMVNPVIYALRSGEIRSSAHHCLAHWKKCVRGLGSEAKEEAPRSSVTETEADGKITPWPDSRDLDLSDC
Method: as §1
(§3) Stably transfected cells were treated for 24 h with 5 mM butyrate in growth medium before harvesting, followed by homogenization in 15 mmol/L Hepes, 0.3 mmol/L EDTA, 1 mmol/L EGTA, 2 mmol/L MgCl2, complete EDTA-free protease inhibitor (Roche Applied Science, Rotkreuz, Switzerland), pH 7.4 using a glass potter and centrifugation at 47,800 g at 4°C for 30 min. The pellet was then rehomogenized twice in the same buffer and centrifuged (47,800 g, 4°C, 30 min). The final pellet was then resuspended in 75 mmol/L Tris, 0.3 mmol/L EDTA, 1 mmol/L EGTA, 12.5 mmol/L MgCl2, 250 mmol/L sucrose, pH 7.4 at a protein concentration of 1 to 3 mg/mL, aliquoted, frozen on dry ice and stored at −80°C. Saturation binding was performed with 0.05 to 2.6 nM [^3H]CP55940 (Perkin Elmer) and 1.0 μg of membrane protein. CP55940 (10 μM) was used to define non-specific binding. More than 95% of the total binding signal was specific. Assay buffer consisted of 50 mmol/L Tris-HCl, 5 mmol/L MgCl2, 2.5 mmol/L EGTA, and 0.1% fatty acid-free BSA, pH 7.4. Assays were initiated by addition of membranes in a final volume of 250 μL/well. Mixtures were incubated for 3 h at room temperature and then vacuum filtered and rinsed with wash buffer (50 mmol/L Tris-HCl, 5 mmol/L MgCl2, 2.5 mmol/L EGTA, and 0.5% fatty acid-free BSA, pH 7.4) on a Filtermate cell harvester through Packard GF/B filters presoaked in 0.3% polyethylenimine.
(§4) For competition binding, membrane preparations were incubated with 0.3 nM [^3H]CP55940 in the presence or absence of increasing concentrations of ligands for 60 min at 30°C in a final volume of 0.2 mL of 50 mmol/L Tris-HCl, 5 mmol/L MgCl2, 2.5 mmol/L EGTA, 0.1% fatty acid-free BSA, and 1% DMSO, pH 7.4, buffer, gently shaking. Non-specific binding was defined with 10 μM CP55940. All binding reactions were terminated by vacuum filtration onto 0.5% polyethylenimine presoaked GF/B filter plates (Packard) followed by seven brief washes with 2 mL of ice-cold binding buffer containing 0.5% fatty acid-free BSA. Plates were dried at 50°C for 1 h and liquid scintillation counting was used to determine bound radiolabel. IC50 values and Hill slopes were determined by a four parameter logistic model using ActivityBase (ID Business Solution, Guilford, UK). pKi values were determined by the generalized Cheng-Prusoff equation (Yung-Chi and Prusoff, [1973]).

mCB2 [4] = target: T1, mCB2; assay: radioligand binding assay with [^3H]CP55940, mCB2; settings: competition with [^3H]CP55940; read-out: mCB2 Ki
Method: as §1, §3, §4

hCB2 [5] = target: T3, hCB2; assay: functional cAMP assay, hCB2; format: cell-based
Method: as §1, §2

hCB1 [6] = target: T2, hCB1; assay: radioligand binding assay with [^3H]CP55940, hCB1
Method: as §1, §3, §4

T1 sequence (P47936 whole entry): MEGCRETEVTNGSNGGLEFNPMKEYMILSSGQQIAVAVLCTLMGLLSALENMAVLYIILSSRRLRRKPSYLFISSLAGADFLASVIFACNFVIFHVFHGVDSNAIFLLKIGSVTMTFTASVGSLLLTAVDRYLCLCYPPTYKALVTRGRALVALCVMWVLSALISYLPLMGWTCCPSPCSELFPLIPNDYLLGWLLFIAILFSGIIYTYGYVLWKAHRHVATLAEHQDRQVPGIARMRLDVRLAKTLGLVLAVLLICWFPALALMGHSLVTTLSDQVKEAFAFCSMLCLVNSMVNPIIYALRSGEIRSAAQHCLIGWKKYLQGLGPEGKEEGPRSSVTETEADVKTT

mCB2 cAMP % eff (efficacy) (mCB2 [1]): 101%
EC50 (mCB2 [1]; read-out: mCB2 cAMP EC50): 0.09 nM
EC50 ratio hCB1/hCB2 (hCB1 [2]): 563
times higher hCB2 affinity compared to 12 (hCB2 [3]; Ki comparison): about 4
times higher hCB2 affinity compared to MA2 (hCB2 [3]; Ki comparison): about 100
times higher hCB2 affinity compared to NE40 (hCB2 [3]; Ki comparison): 5
Ki (hCB2 [3]; competition with [^3H]CP55940, read-out: hCB2 Ki): 0.8 nM
Ki (mCB2 [4]): 2.6 nM
hCB2 cAMP % eff (efficacy) (hCB2 [5]; CHO-K1 cells expressing hCB2): 102%
EC50 (hCB2 [5]; CHO-K1 cells expressing hCB2, read-out: hCB2 cAMP EC50): 0.13 nM
functional behaviour in cAMP assay (hCB2 [5]; hCB2): agonists
Ki (hCB1 [6]; competition with [^3H]CP55940, read-out: hCB1 Ki): 102 nM
Ki ratio hCB1/hCB2 (hCB1 [6]; selectivity): 127
SMILES: FCCOc1ccc2ncc(NCCCc3nc(-c4ccc(F)cc4Cl)no3)cc2c1 [MA3, 6-(2-Fluoroethoxy)-N-(3-(3-(2-chloro-4-fluorophenyl)-1,2,4-oxadiazol-5-yl)propyl)quinolin-3-amine]
